Results: paper PMC7130106 (Drug Design, Development and Therapy, 2020)
Entries after “also recorded” stand apart in the source; their conditions may differ.

Tests used:
[1] = cited from earlier work
[2] = system: L. donovani promastigotes; conditions: read-out: IC50 on L. donovani promastigotes; ref 38 (Patterson et al); cited from earlier work
[3] = system: intracellular amastigote stages of L. donovani; experiment: Synergy evaluation, combination index method with amphotericin B; assay type: cell-based, Leishmania donovani
[4] = system: L. mexicana; conditions: read-out: IC50 on L. mexicana; ref 28 (Berry et al); cited from earlier work
[5] = co-administered with tenofovir, efavirenz, ritonavir and rifampin; cited from earlier work
[6] = system: various clinical isolates of L. donovani; conditions: read-out: lowest IC50, L. donovani isolates obtained from Ethiopia; ref 38 (Patterson et al); cited from earlier work
[7] = system: Leishmania donovani promastigotes; assay type: cell-based

Row | SMILES | renal excretion [1] [%] | volume of distribution ([1]; in words) | IC50 [2] [µM] | synergistic activity with amphotericin B [3] | IC50 [4] [µM] | interaction with anti-retroviral and anti-TB drugs [5] | IC50 [6] [µM] | inhibition of promastigotes in primary screening ([7]; 1 μM, 72 h, average of two independent experiments in triplicate) | dose-dependent inhibitory effect in subsequent dose titration assay ([7]; promastigotes)
1 | C[C@]1(COc2ccc(N3CCC(Oc4ccc(OC(F)(F)F)cc4)CC3)cc2)Cn2cc([N+](=O)[O-])nc2O1 [MMV688262, delamanid] | < 5 | high volume of distribution | 0.015 | synergistic effect; also recorded: synergistic activity | 1.78 | no clinically relevant interaction | 0.0865 | – | –
2 | CC(C)(C)C(O)C(Oc1ccc(-c2ccccc2)cc1)n1cncn1 (stereo not drawn) [MMV688942] | – | – | – | – | – | – | – | considerable activity | failed to demonstrate a dose-dependent inhibitory effect
